Experimental data reported in patent US20230085307A1, “PYRIDAZINONE COMPOUND AND HERBICIDE” (NISSAN CHEMICAL CORPORATION, priority 2019, published 2023).

Legend:
Japanese bulrush = experiment: Test Example 1: herbicidal activity, application before weed generation under submerged conditions (Table 16, symbol B); format: in vivo, Japanese bulrush (Schoenoplectus juncoides); conditions: 320 g/ha applied herbicide
In short: (§1)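 Alluvial soil was flooded to 4 cm depth, weed seeds were sown mixed and 2.5-leaf rice seedlings were transplanted. On sowing day, the compound's emulsion, diluted in water to a set dose, was applied to the water surface. Plants grew at 25–30 °C and were scored 0–5 after three weeks.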

oval-leafed pondweed [1] = experiment: Test Example 1: herbicidal activity, application before weed generation under submerged conditions (Table 16, symbol C); format: in vivo, oval-leafed pondweed (Monochoria vaginalis); conditions: 320 g/ha applied herbicide
In short: as §1

oval-leafed pondweed [2] = experiment: Test Example 2: herbicidal activity, application during weed generation under submerged conditions (Table 17, symbol C); format: in vivo, oval-leafed pondweed (Monochoria vaginalis); conditions: AAH 320 g/ha; application during weed generation, submerged conditions
In short: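 Effect on each weed is rated three weeks post-treatment, using the same scoring criteria as the preceding test. Plants grow from mixed-sown seed in flooded alluvial soil (4 cm water) at 25° C. to 30° C., and are treated at one to two leaves with diluted emulsion dropped onto the water.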

rice flat sedge = experiment: Test Example 3: herbicidal effect by foliage application, Wagner pot (Table 18, symbol E); format: in vivo, rice flat sedge (Cyperus iria); conditions: for herbicidal effect on E (rice flat sedge), rating 0-5: 320 g/ha
In short: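 Plants were sown in alluvial soil held under 0.1–0.5 cm standing water and grown 14 days in a greenhouse at 25–30 °C. An emulsifiable formulation, water-diluted to the set dose, was then sprayed onto the foliage, and effects were scored three weeks later using previously defined criteria.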

green foxtail [3] = experiment: Test Example 4: herbicidal effect by soil treatment (Table 19, symbol G); format: in vivo, green foxtail (Setaria viridis); conditions: for herbicidal effect rating, G: green foxtail: 320 g/ha
In short: (§2)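 Step 1: sow seeds in sterilized diluvial soil, cover ~1.5 cm. Step 2: spray diluted emulsion onto soil surface at predetermined rate. Step 3: greenhouse, 25–30° C, three weeks. Step 4: grade effect on each plant by earlier criteria.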

barnyard grass [4] = experiment: Test Example 4: herbicidal effect by soil treatment (Table 19, symbol H); format: in vivo, barnyard grass (Echinochloa crus-galli)
In short: as §2

wild oat [5] = experiment: Test Example 4: herbicidal effect by soil treatment (Table 19, symbol I); format: in vivo, wild oat (Avena fatua)
In short: as §2

redroot pigweed [6] = experiment: Test Example 4: herbicidal effect by soil treatment (Table 19, symbol N); format: in vivo, redroot pigweed (Amaranthus retroflexus)
In short: as §2

green foxtail [7] = experiment: Test Example 5: herbicidal effect by foliage application, plastic box (Table 20, symbol G); format: in vivo, green foxtail (Setaria viridis); conditions: foliage application, 320 g/ha; for effect on green foxtail (G): 3 weeks after application
In short: (§3)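 Foliar spray test: emulsion formulation diluted in water to a set application rate, sprayed onto 14-day-old plants raised in diluvial soil at 25° C to 30° C under glass. Both herbicidal effect and crop effect rated visually three weeks later.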

barnyard grass [8] = experiment: Test Example 5: herbicidal effect by foliage application, plastic box (Table 20, symbol H); format: in vivo, barnyard grass (Echinochloa crus-galli); conditions: foliage application, 320 g/ha; for effect on barnyard grass (H): 3 weeks after application
In short: as §3

wild oat [9] = experiment: Test Example 5: herbicidal effect by foliage application, plastic box (Table 20, symbol I); format: in vivo, wild oat (Avena fatua); conditions: foliage application, 320 g/ha; for effect on wild oat (I): 3 weeks after application
In short: as §3

blackgrass = experiment: Test Example 5: herbicidal effect by foliage application, plastic box (Table 20, symbol J); format: in vivo, blackgrass (Alopecurus myosuroides); conditions: foliage application, 320 g/ha; for effect on blackgrass (J): 3 weeks after application
In short: as §3

velvetleaf = experiment: Test Example 5: herbicidal effect by foliage application, plastic box (Table 20, symbol M); format: in vivo, velvetleaf (Abutilon theophrasti); conditions: foliage application, 320 g/ha; for effect on velvetleaf (M): 3 weeks after application
In short: as §3

redroot pigweed [10] = experiment: Test Example 5: herbicidal effect by foliage application, plastic box (Table 20, symbol N); format: in vivo, redroot pigweed (Amaranthus retroflexus); conditions: foliage application, 320 g/ha
In short: as §3

chickweed [11] = experiment: Test Example 5: herbicidal effect by foliage application, plastic box (Table 20, symbol P); format: in vivo, common chickweed (Stellaria media); conditions: foliage application, 320 g/ha
In short: as §3

chickweed [12] = experiment: Test Example 4: herbicidal effect by soil treatment (Table 19, symbol P); format: in vivo, common chickweed (Stellaria media); conditions: for herbicidal effect rating, P: chickweed: 320 g/ha
In short: as §2

[13] = amount of applied herbicide 320 g/ha
[14] = evaluated three weeks after application

SMILES | Herbicidal effect on B: Japanese bulrush (grade 0-5) (Japanese bulrush) | Herbicidal effect on C: oval-leafed pondweed (grade 0-5) (oval-leafed pondweed [1]) | herbicidal effect rating, C: oval-leafed pondweed (oval-leafed pondweed [2]) | herbicidal effect on E (rice flat sedge), rating 0-5 (rice flat sedge) | herbicidal effect rating, G: green foxtail (green foxtail [3]) | herbicidal effect rating, H: barnyard grass (barnyard grass [4]; 320 g/ha) | herbicidal effect rating, I: wild oat (wild oat [5]; 320 g/ha) | herbicidal effect rating, N: redroot pigweed (redroot pigweed [6]; 320 g/ha) | herbicidal effect rating, P: chickweed (chickweed [12]) | effect on green foxtail (G) (green foxtail [7]) | effect on barnyard grass (H) (barnyard grass [8]) | effect on wild oat (I) (wild oat [9]) | effect on blackgrass (J) (blackgrass) | effect on velvetleaf (M) (velvetleaf) | further results
Cc1nn(C)c(=O)c(-c2c(-c3cccc(OC(C)C)c3)sc3ccc(F)cc23)c1O [2-215] | 0 (Herbicidal rate of 5% or less (almost no effect)) | 0 (Herbicidal rate of 5% or less (almost no effect)) | 0 (Herbicidal rate of 5% or less (almost no effect)) | – | – | – | – | – | – | – | – | – | – | – | herbicidal effect on E: rice flat sedge (rice flat sedge; [13]): 4 (Herbicidal rate of 70% or more and less than 90%); G: green foxtail, herbicidal effect rating (green foxtail [3]; [13]): 5 (Herbicidal rate of 90% or more (almost completely withered)); H: barnyard grass, herbicidal effect rating (barnyard grass [4]; [13]): 5 (Herbicidal rate of 90% or more (almost completely withered)); I: wild oat, herbicidal effect rating (wild oat [5]; [13]): 0 (Herbicidal rate of 5% or less (almost no effect)); N: redroot pigweed, herbicidal effect rating (redroot pigweed [6]; [13]): 5 (Herbicidal rate of 90% or more (almost completely withered)); herbicidal effect on G: green foxtail (criteria 0-5) (green foxtail [7]; [14]): 5 (Herbicidal rate of 90% or more (almost completely withered)); herbicidal effect on H: barnyard grass (criteria 0-5) (barnyard grass [8]; [14]): 5 (Herbicidal rate of 90% or more (almost completely withered)); herbicidal effect on I: wild oat (criteria 0-5) (wild oat [9]; [14]): 0 (Herbicidal rate of 5% or less (almost no effect)); herbicidal effect on J: blackgrass (criteria 0-5) (blackgrass; [14]): 3 (Herbicidal rate of 40% or more and less than 70%); herbicidal effect on M: velvetleaf (criteria 0-5) (velvetleaf; [14]): 3 (Herbicidal rate of 40% or more and less than 70%); herbicidal effect on N: redroot pigweed (criteria 0-5) (redroot pigweed [10]; [14]): 5 (Herbicidal rate of 90% or more (almost completely withered)); herbicidal effect on P: chickweed (criteria 0-5) (chickweed [11]; [14]): 5 (Herbicidal rate of 90% or more (almost completely withered))
CCOc1ccc(-c2sc3ccc(F)cc3c2-c2c(O)c(C)nn(C)c2=O)cc1 [2-030] | 0 (Herbicidal rate of 5% or less (almost no effect)) | 0 (Herbicidal rate of 5% or less (almost no effect)) | 0 (Herbicidal rate of 5% or less (almost no effect)) | 5 (Herbicidal rate of 90% or more (almost completely withered)) | 0 (Herbicidal rate of 5% or less (almost no effect)) | 0 (Herbicidal rate of 5% or less (almost no effect)) | 0 (Herbicidal rate of 5% or less (almost no effect)) | 4 (Herbicidal rate of 70% or more and less than 90%) | 3 (Herbicidal rate of 40% or more and less than 70%) | 2 (Herbicidal rate of 20% or more and less than 40%) | 5 (Herbicidal rate of 90% or more (almost completely withered)) | 0 (Herbicidal rate of 5% or less (almost no effect)) | 0 (Herbicidal rate of 5% or less (almost no effect)) | 5 (Herbicidal rate of 90% or more (almost completely withered)) | –
CCCCOc1ccc(-c2sc3ccccc3c2-c2c(OC(=O)CCC)c(C)nn(C)c2=O)cc1 [1-025] | 5 (Herbicidal rate of 90% or more (almost completely withered)) | 4 (Herbicidal rate of 70% or more and less than 90%) | 3 (Herbicidal rate of 40% or more and less than 70%) | 5 (Herbicidal rate of 90% or more (almost completely withered)) | – | – | – | – | – | – | – | – | – | – | herbicidal effect rating, H: barnyard grass (barnyard grass [4]; [13]): 0 (Herbicidal rate of 5% or less (almost no effect)); herbicidal effect rating, I: wild oat (wild oat [5]; [13]): 0 (Herbicidal rate of 5% or less (almost no effect)); herbicidal effect rating, N: redroot pigweed (redroot pigweed [6]; [13]): 5 (Herbicidal rate of 90% or more (almost completely withered)); herbicidal effect grade, G: green foxtail (green foxtail [7]; three weeks after application): 3 (Herbicidal rate of 40% or more and less than 70%); herbicidal effect grade, H: barnyard grass (barnyard grass [8]; three weeks after application): 4 (Herbicidal rate of 70% or more and less than 90%); herbicidal effect grade, I: wild oat (wild oat [9]; three weeks after application): 0 (Herbicidal rate of 5% or less (almost no effect)); herbicidal effect grade, J: blackgrass (blackgrass; three weeks after application): 0 (Herbicidal rate of 5% or less (almost no effect)); herbicidal effect grade, M: velvetleaf (velvetleaf; three weeks after application): 5 (Herbicidal rate of 90% or more (almost completely withered)); herbicidal effect grade, N: redroot pigweed (redroot pigweed [10]; three weeks after application): 5 (Herbicidal rate of 90% or more (almost completely withered)); herbicidal effect grade, P: chickweed (chickweed [11]; three weeks after application): 5 (Herbicidal rate of 90% or more (almost completely withered))
CCCC(=O)Oc1c(C)nn(C)c(=O)c1-c1c(-c2ccc(OCC)cc2)sc2ccc(F)cc12 [2-031] | 4 (Herbicidal rate of 70% or more and less than 90%) | 4 (Herbicidal rate of 70% or more and less than 90%) | 3 (Herbicidal rate of 40% or more and less than 70%) | 4 (Herbicidal rate of 70% or more and less than 90%) | 2 (Herbicidal rate of 20% or more and less than 40%) | 3 (Herbicidal rate of 40% or more and less than 70%) | 0 (Herbicidal rate of 5% or less (almost no effect)) | 4 (Herbicidal rate of 70% or more and less than 90%) | 1 (Herbicidal rate of 5% or more and less than 20%) | 2 (Herbicidal rate of 20% or more and less than 40%) | 4 (Herbicidal rate of 70% or more and less than 90%) | 0 (Herbicidal rate of 5% or less (almost no effect)) | 0 (Herbicidal rate of 5% or less (almost no effect)) | 5 (Herbicidal rate of 90% or more (almost completely withered)) | –
C=Cc1ccc(-c2sc3ccc(F)cc3c2-c2c(O)c(C)nn(C)c2=O)cc1 [2-018] | 3 (Herbicidal rate of 40% or more and less than 70%) | 0 (Herbicidal rate of 5% or less (almost no effect)) | 3 (Herbicidal rate of 40% or more and less than 70%) | 5 (Herbicidal rate of 90% or more (almost completely withered)) | 1 (Herbicidal rate of 5% or more and less than 20%) | 0 (Herbicidal rate of 5% or less (almost no effect)) | 0 (Herbicidal rate of 5% or less (almost no effect)) | 4 (Herbicidal rate of 70% or more and less than 90%) | 3 (Herbicidal rate of 40% or more and less than 70%) | 5 (Herbicidal rate of 90% or more (almost completely withered)) | 4 (Herbicidal rate of 70% or more and less than 90%) | 5 (Herbicidal rate of 90% or more (almost completely withered)) | 1 (Herbicidal rate of 5% or more and less than 20%) | 5 (Herbicidal rate of 90% or more (almost completely withered)) | –
C#CCSCc1ccc(-c2sc3ccccc3c2-c2c(O)c(C)nn(C)c2=O)cc1 [1-247] | 2 (Herbicidal rate of 20% or more and less than 40%) | 0 (Herbicidal rate of 5% or less (almost no effect)) | 0 (Herbicidal rate of 5% or less (almost no effect)) | 4 (Herbicidal rate of 70% or more and less than 90%) | – | – | – | – | – | 4 (Herbicidal rate of 70% or more and less than 90%) | 4 (Herbicidal rate of 70% or more and less than 90%) | 1 (Herbicidal rate of 5% or more and less than 20%) | 0 (Herbicidal rate of 5% or less (almost no effect)) | 5 (Herbicidal rate of 90% or more (almost completely withered)) | G: green foxtail, herbicidal effect rating (green foxtail [3]; AAH 320 g/ha): 0 (Herbicidal rate of 5% or less (almost no effect)); H: barnyard grass, herbicidal effect rating (barnyard grass [4]; AAH 320 g/ha): 0 (Herbicidal rate of 5% or less (almost no effect)); I: wild oat, herbicidal effect rating (wild oat [5]; AAH 320 g/ha): 0 (Herbicidal rate of 5% or less (almost no effect)); N: redroot pigweed, herbicidal effect rating (redroot pigweed [6]; AAH 320 g/ha): 3 (Herbicidal rate of 40% or more and less than 70%); P: chickweed, herbicidal effect rating (chickweed [12]; AAH 320 g/ha): 4 (Herbicidal rate of 70% or more and less than 90%)
